{"source": "patent US10780061B2", "about": "“Composition comprising farnesol and use thereof” (Daegu Gyongbuk Institute of Science and Technology, priority 2014, dated 2020)", "key": {"[1]": {"system": "PARIS-overexpressing C2C12 cells", "assay": "Differentiation of PARIS-overexpressing myoblasts (Myh immunostaining)", "type": "cell-based", "experimental": "In C2C12 myoblasts, a PARIS gene expression vector (pCMV-Tag2A, Stratagene) is transiently expressed, followed by immunoblotting and immunostaining analysis. PARIS gene is a full length cDNA of human PARIS gene having a nucleotide sequence of SEQ ID NO: 9. […] After induction of differentiation of PARIS-overexpressing C2C12 cells for 3 days, immunostaining for Myh expression is performed. To induce the differentiation, cells are cultured in DMEM containing 2% horse serum and 0.1 μM farnesol dissolved in DMSO for 48 hours. A control group is cultured in the same manner as above, except that only DMSO is added. Other culture conditions are the same as those described in Section 1 of Example 2. As shown in panel (A) of FIG. 4F, PARIS overexpression decreases Myh-positive myotube formation, and reduced myotube formation is recovered by farnesol treatment. In (A) of FIG. 4F, Control represents myoblasts introduced with no PARIS gene expression vector, and ‘PARIS’ represents myoblasts introduced with a PARIS gene expression vector. In these experiments, blue color staining indicates nuclei, and red color staining indicates stained myh and also myotubes. The colors are not shown in panel (A) of FIG. 4F, but the difference in the relative amount of red color stained area is quantified in panel (B) of FIG. 4F, wherein pCMV represents the control myoblasts without a PARIS gene expression vector. […]"}, "[2]": {"system": "C2C12 myoblasts introduced with FLAG-PARIS WT or C631S", "assay": "Differentiation of PARIS WT or PARIS C631S gene-introduced C2C12 myoblasts (Mhc immunostaining)", "type": "cell-based", "settings": "C2C12, 0.1 M farnesol, 24 hours", "experimental": "Additionally, it is examined whether the presence of farnesol affects farnesylation of PARIS protein in skeletal muscles. To this end, the FLAG-PARIS wild-type (WT) gene or the FLAG-PARIS C631S mutant (hereinafter, referred to as MT) gene is overexpressed in C2C12 myoblasts, and then farnesol is treated thereto, followed by measurement of differentiation. The muscles of mice are introduced with AAV-GFP, AAV-PARIS WT or AAV-PARIS C631S viral vector, and mice are bred by feeding with farnesol, followed by measurement of mitochondrial enzyme activity.\nIn FIG. 5D, C2C12 myoblasts are introduced with FLAG-PARIS wild-type (WT) gene or FLAG-PARIS C631S mutant (hereinafter, referred to as “MT”) gene, and cultured in the presence of […] farnesol in DMEM containing 10% FBS for 24 hours, followed by measurement of muscle differentiation and mitochondrial enzyme activity. Muscle differentiation is examined by immunostaining using a muscle differentiation marker, Mhc. […] The percentage of Mhc-negative nuclei indicates the cells showing no formation of red-colored myotube among the nucleus-stained myoblasts of A."}, "PARIS, PGC-1α": {"system": "PARIS, PGC-1α", "assay": "Immunoprecipitation for PGC-1α expression and PARIS-farnesylation, short-term high fat diet", "type": "in vivo, mouse", "settings": "high fat diet with 0.5% compound, 5 days, gastrocnemius muscles", "excerpt": "To prepare the PGC-1α-inhibited model, 3-month-old mouse (female, body weight of 20 g) is fed with high fat diet, in which fat is increased to 60%, compared to a negative control group, for 5 days (short-term effect) or 3 months (long-term effect). The negative control group is fed with a general diet. Farnesol is mixed in the high fat diet at a content of 0.5% (weight of farnesol/weight of diet). A positive control group is fed with high fat diet containing a type II diabetes drug, metformin at a content of 0.5% (weight of metformin/weight of diet). Mice are fed with the general diet, the high fat diet, and the high fat diet containing farnesol or metformin for 3 months, and then hind limbs are removed to analyze muscle differentiation and mitochondrial enzyme activity.\nThe effects of high fat diet and farnesol and metformin on PGC-1α induction by PARIS-farnesylation are evaluated. To analyze effect of short-term high fat diet, mice are fed with the above conditions for 5 days. Immunoblotting of PGC-1α and PARIS in gastrocnemius muscles of the mice is performed.\nIn this regard, PARIS-farnesylation is normalized to the immunoprecipitated PARIS expression level."}, "[3]": {"assay": "Fat mass ratio by dual-energy X-ray absorptiometry", "type": "in vivo", "settings": "old mouse, farnesol diet 4 months", "experimental": "22-month-old female mice (weighing 30 g) are fed with a control diet and a farnesol diet for 4 months. That is, 22-month-old mice are fed for 4 months, and then 26-month-old mice are analyzed. […] The same mouse is used as a control group, except that it is fed with a diet containing no farnesol. Muscle strength, energy expenditure, glucose tolerance, and fat accumulation of each mouse are evaluated.\nThe fat mass ratio is determined by dual-energy X-ray absorptiometry (LUNA PIXIMUS, GE Healthcare/LUNA), and measured on combined images after radiation at 40 kV X-ray and 80 kV X-ray four times, respectively."}, "[4]": {"system": "fibrosis-related genes TGF-β, Col A1, collagen A3, Timp2", "assay": "qRT-PCR of fibrosis-related genes in injured tibialis anterior muscle", "type": "in vivo", "settings": "old mouse, CTX injury", "experimental": "25-month-old mice are fed with a control diet or a farnesol-containing diet for 2 weeks, and then 2 ul of 10 uM cardiotoxin (CTX) per body weight (g) is directly injected into the muscle to induce muscle injury. After 4 days, muscles are frozen and sectioned, followed by histological staining.\nIn addition, expressions of fibrosis-related genes, TGF-β, Col A1, collagen A3, and Timp2 in tibialis anterior muscle are analyzed by qRT-PCR as described above."}}, "data": [{"smiles": "CC(C)=CCC/C(C)=C/CC/C(C)=C/CO", "note": "[farnesol, (2E,6E)-3,7,11-trimethyldodeca-2,6,10-trien-1-ol]", "values": [{"measurement": "red color (Myh) stained area, control cells without PARIS vector", "setting": "[1]; CONTROL (pCMV) C2C12, 0.1 μM farnesol vs DMSO", "result": "‘CONTROL’ cell treated with DMSO is smaller than that of ‘CONTROL’ cell treated with Farnesol"}, {"measurement": "Myh-positive myotube formation reduced by PARIS overexpression", "setting": "[1]; PARIS-overexpressing C2C12, 0.1 μM farnesol", "result": "recovered"}, {"measurement": "percentage of Mhc-negative nuclei, FLAG-PARIS C631S", "setting": "[2]", "result": "does not significantly decrease"}, {"measurement": "percentage of Mhc-negative nuclei, FLAG-PARIS WT", "setting": "[2]", "result": "significantly decreases"}, {"measurement": "reduction in PARIS-farnesylation by high fat diet", "setting": "PARIS, PGC-1α", "result": "inhibited"}, {"measurement": "reduction in PGC-1α expression by high fat diet", "setting": "PARIS, PGC-1α", "result": "inhibited"}, {"measurement": "fat mass ratio", "setting": "[3]", "result": "significantly decreased"}, {"measurement": "expressions of fibrosis-related genes in injured tibialis anterior muscle", "setting": "[4]", "result": "significantly reduced"}]}]}
